Marks after values point to notes of the source that are not given here.
What was measured:
[1] = system: Rabbit Psoas myofibrils (skeletal myosin ATPase); assay: Myofibril ATPase assay, rabbit psoas (skeletal) myofibrils; assay type: biochemical
In short: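 Values are concentrations giving 75% (Y75) or 125% (Y125) of vehicle ATPase activity, from 4-parameter logistic fits of normalized rates. Rates came from linear regression of A340 over 75 min, NADH oxidation coupled to ADP via PK-LDH. Enzyme source: skeletal myofibrils from rabbit psoas, pH 7.0 pCa buffer.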

[2] = biological target: T1, Porcine ventricle myofibrils (ventricular myosin ATPase) (Sus scrofa, UniProt P79293); assay: Myofibril ATPase assay, porcine ventricle myofibrils; assay type: biochemical, porcine (Yucatan minipigs)
T1 construct: Myofibrils from porcine cardiac muscle was isolated from the left ventricle of Yucatan minipigs; tissue Exemplar Genetics; host or cells: left ventricle of Yucatan minipigs, myofibrils prepared in house
T1 sequence (P79293 whole entry): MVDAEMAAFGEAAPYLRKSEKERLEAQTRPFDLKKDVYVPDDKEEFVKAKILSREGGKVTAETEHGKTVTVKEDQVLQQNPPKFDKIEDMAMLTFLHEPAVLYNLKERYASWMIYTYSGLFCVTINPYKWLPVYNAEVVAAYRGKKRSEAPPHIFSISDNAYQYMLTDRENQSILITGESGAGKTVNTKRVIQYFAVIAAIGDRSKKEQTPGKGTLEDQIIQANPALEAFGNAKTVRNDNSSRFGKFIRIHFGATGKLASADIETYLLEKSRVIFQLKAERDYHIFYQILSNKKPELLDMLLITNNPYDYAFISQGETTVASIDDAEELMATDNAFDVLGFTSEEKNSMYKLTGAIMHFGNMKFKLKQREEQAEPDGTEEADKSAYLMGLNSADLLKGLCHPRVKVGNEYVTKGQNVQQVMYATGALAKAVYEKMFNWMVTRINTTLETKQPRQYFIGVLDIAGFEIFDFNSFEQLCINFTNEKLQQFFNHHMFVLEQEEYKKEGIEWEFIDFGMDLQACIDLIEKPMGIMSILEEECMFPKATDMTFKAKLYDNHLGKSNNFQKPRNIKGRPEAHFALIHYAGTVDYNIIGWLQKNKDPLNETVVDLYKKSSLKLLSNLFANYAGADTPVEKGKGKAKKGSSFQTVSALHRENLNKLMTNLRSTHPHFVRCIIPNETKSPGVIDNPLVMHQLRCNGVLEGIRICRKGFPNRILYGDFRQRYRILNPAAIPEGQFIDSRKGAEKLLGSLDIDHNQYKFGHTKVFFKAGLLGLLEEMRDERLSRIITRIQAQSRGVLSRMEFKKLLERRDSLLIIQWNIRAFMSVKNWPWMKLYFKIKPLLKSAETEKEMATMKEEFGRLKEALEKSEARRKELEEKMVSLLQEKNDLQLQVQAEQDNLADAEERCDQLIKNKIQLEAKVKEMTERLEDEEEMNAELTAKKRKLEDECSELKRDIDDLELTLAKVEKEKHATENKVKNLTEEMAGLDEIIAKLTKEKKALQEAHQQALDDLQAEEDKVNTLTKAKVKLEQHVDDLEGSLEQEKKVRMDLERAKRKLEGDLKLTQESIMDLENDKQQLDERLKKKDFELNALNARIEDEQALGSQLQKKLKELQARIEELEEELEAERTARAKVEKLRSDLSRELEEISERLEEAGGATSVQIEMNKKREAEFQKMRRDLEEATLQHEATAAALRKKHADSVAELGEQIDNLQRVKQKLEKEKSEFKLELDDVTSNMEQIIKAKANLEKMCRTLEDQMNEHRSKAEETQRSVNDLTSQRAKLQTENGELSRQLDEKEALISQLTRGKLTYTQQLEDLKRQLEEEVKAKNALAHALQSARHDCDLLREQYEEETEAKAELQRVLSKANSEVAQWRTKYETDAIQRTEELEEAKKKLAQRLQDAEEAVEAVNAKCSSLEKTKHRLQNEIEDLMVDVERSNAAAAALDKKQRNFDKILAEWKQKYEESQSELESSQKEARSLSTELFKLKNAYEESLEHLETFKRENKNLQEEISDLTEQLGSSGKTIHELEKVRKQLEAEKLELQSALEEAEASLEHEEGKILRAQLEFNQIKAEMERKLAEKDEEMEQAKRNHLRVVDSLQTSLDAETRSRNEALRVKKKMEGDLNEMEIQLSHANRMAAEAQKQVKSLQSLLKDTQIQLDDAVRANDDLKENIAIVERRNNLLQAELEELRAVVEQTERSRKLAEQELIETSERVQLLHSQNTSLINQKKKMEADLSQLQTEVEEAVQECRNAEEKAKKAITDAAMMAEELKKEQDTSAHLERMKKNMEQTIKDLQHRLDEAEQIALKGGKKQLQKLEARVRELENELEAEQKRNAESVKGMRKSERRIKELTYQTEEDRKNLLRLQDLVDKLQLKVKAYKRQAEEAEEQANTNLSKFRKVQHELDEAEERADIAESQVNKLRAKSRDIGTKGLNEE
In short: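 Myofibrils isolated from Yucatan minipig left ventricle; coupled PK/LDH NADH assay, pCa buffer pH 7.0, kinetic A340 reads over 75 min. Vehicle-normalized slopes fit 4PL; Y75/Y125 derived.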

[3] = system: Porcine atria myofibrils (atrial myosin ATPase); assay: Myofibril ATPase assay, porcine atria myofibrils; assay type: biochemical
In short: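 Y75 (25% inhibition) or Y125 (activation) values come from 4-parameter logistic fits of vehicle-normalized rates. Rates are linear-regression slopes of NADH absorbance at 340 nm, read kinetically over 75 min, with ADP coupled to NADH oxidation via pyruvate kinase/lactate dehydrogenase.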

[4] = Y75 value (no ‡ mark), rabbit psoas myofibrils
[5] = Y75 value (no ‡ mark), porcine ventricle myofibrils
[6] = Y75 value (no ‡ mark), porcine atria myofibrils
[7] = rabbit psoas myofibrils, Y75 value
[8] = porcine ventricle myofibrils, Y75 value
[9] = porcine atria myofibrils, Y75 value (75% activity relative to no compound)
[10] = ‡ Y125 value, not a Y75 value (125% activity relative to no compound), rabbit psoas myofibrils
[11] = Y75 value: concentration required to reduce myosin ATP-ase activity by 25%, Porcine Ventricle Prep pCa 25 GEOM_MEAN
[12] = Y75 value: concentration required to reduce myosin ATP-ase activity by 25%, Porcine Atria Prep pCa 25 GEOM_MEAN

Compound | Skeletal EC25 [1, 4] [µM] | Ventricular EC25 [2, 5] [µM] | Atrial EC25 [3, 6] [nM] | Skeletal EC25 [1, 7] [µM] | Ventricular EC25 [2, 8] [µM] | Atrial EC25 [3, 9] [nM] | other results
C[C@H](NC(=O)Cc1c(C2CC2)c2cc(F)ccc2[nH]c1=O)c1ccc(C#N)cn1 [compound 56] | 0.12 | 3.98 | 2470 |  |  |  | 
Cc1c(CC(=O)N[C@@H](C)c2ccc(C#N)cn2)c(=O)[nH]c2ccc(F)c(C3CC3)c12 [compound 24] | 0.04 | 0.21 | 50 |  |  |  | 
C[C@H](NC(=O)C(F)(F)c1cc2c(F)c(F)ccc2[nH]c1=O)c1cc(C#N)ccn1 (single isomer, unassigned) [compound 2558] | 100.00 | 81.97 | 31660 |  |  |  | 
C[C@H](NC(=O)Cc1cc2cc(O)ccc2[nH]c1=O)c1ccc(F)cc1F [compound 125] | 25.67 | 20.89 | 64800 |  |  |  | 
Cc1c([C@H](C)C(=O)N[C@@H](C)c2ccc(F)cc2F)c(=O)[nH]c2ccnc(OC(F)(F)F)c12 (single isomer, unassigned) [compound 348] |  |  |  | 0.51 | 6.44 | 340 | 
Cc1nccc2[nH]c(=O)c(C(F)(F)C(=O)N[C@H](CO)c3ncc(C#N)cc3F)c(C)c12 (single isomer, unassigned) [compound 3522] |  |  |  | 0.28 | 2.90 | 1100 | 
Cc1nccc2[nH]c(=O)c(CC(=O)N[C@H](C)c3cccc(O)n3)c(C)c12 (single isomer, unassigned) [compound 297] |  |  |  | 100.00 | 100.00 | 100000 | 
Cc1c(CC(=O)N[C@@H](C)c2ccc(C#N)cc2F)c(=O)[nH]c2ccc(F)c(F)c12 [compound 66] | 0.01 | 0.06 | 50 |  |  |  | 
Cc1c(C(F)(F)C(=O)N[C@@H](C)c2cccc(C#N)n2)c(=O)[nH]c2ccc(F)cc12 (single isomer, unassigned) [compound 2566] |  |  | 100000 |  |  |  | Skeletal EC25 [1, 10]: 100.00‡ μM; Ventricular EC25 ([2]; ‡ Y125 value, not a Y75 value (125% activity relative to no compound), porcine ventricle myofibrils): 100.00‡ μM
C[C@H](NC(=O)Cc1cc2c(F)c(F)ccc2[nH]c1=O)c1nc(C#N)co1 (single isomer, unassigned) [compound 4007] |  |  |  |  |  |  | Skeletal EC25 (μM), Y125 value (‡) ([1]; Y125 value: concentration required to increase myosin ATP-ase activity by 25%, Rabbit Psoas Prep pCa 25 GEOM_MEAN): 100.00‡ μM; Ventricular EC25 [2, 11]: 100.00 µM; Atrial EC25 [3, 12]: 100000 nM
Cc1c(CC(=O)N[C@@H](C)c2ccc(F)cc2F)c(=O)[nH]c2ccc(Br)cc12 [compound 120] | 0.05 | 0.25 | 40 |  |  |  | 
COc1cccc([C@@H](C)NC(=O)Cc2c(C)c3c(C)nccc3[nH]c2=O)c1 (single isomer, unassigned) [compound 314] |  |  |  | 100.00 | 100.00 | 100000 | 
Cc1cc(F)ccc1[C@H](C)NC(=O)Cc1c(C)c2c(C)nccc2[nH]c1=O [compound 407] |  |  |  | 0.02 | 0.33 | 100 | 
C[C@H](NC(=O)Cc1cc2c(F)cccc2[nH]c1=O)c1ccc(C#N)cn1 [compound 48] | 0.23 | 4.14 | 1550 |  |  |  | 
Cc1c(CC(=O)N[C@@H](C)c2ncc(C#N)cn2)c(=O)[nH]c2ccc(F)c(Cl)c12 (single isomer, unassigned) [compound 2056] | 0.06 | 0.29 | 110 |  |  |  | 
Cc1c(C(F)(F)C(=O)N[C@@H](C)c2nc(C#N)cs2)c(=O)[nH]c2ccc(F)cc12 (single isomer, unassigned) [Compound 4010] |  |  |  |  |  |  | Skeletal EC25 ([1]; Y75 value: concentration required to reduce myosin ATP-ase activity by 25%, Rabbit Psoas Prep pCa 25 GEOM_MEAN): 2.38 µM; Ventricular EC25 [2, 11]: 19.76 µM; Atrial EC25 [3, 12]: 740 nM
Cc1c(C(F)(F)C(=O)N[C@H](C)c2ncc(C#N)cn2)c(=O)[nH]c2ccc(F)c(C#N)c12 (single isomer, unassigned) [compound 2521] | 0.41 | 1.83 | 320 |  |  |  | 
Cc1c(CC(=O)N[C@H](C)c2ccc(C#N)cn2)c(=O)[nH]c2cc(F)ccc12 [compound 1072] | 100.00 | 36.86 | 17570 |  |  |  | 
C[C@@H](NC(=O)Cc1cc2c(C#N)cccc2[nH]c1=O)c1ncc(C#N)cn1 (single isomer, unassigned) [compound 2037] | 0.79 | 5.31 | 2880 |  |  |  | 
Cc1nc(C#N)ncc1[C@@H](C)NC(=O)Cc1c(C)c2c(F)c(F)ccc2[nH]c1=O [compound 1131] | 0.53 | 0.89 | 350 |  |  |  | 

Further lines, with some results ahead:

Skeletal EC25 [1, 4] [µM] | Ventricular EC25 [2, 5] [µM] | Atrial EC25 [3, 6] [nM] | Skeletal EC25 [1, 7] [µM] | Ventricular EC25 [2, 8] [µM] | Atrial EC25 [3, 9] [nM] | Compound | other results
100.00 | 100.00 | 100000 |  |  |  | N#Cc1cnc2c(c1)CC[C@@H]2NC(=O)Cc1cc2c(F)c(F)ccc2[nH]c1=O (single isomer, unassigned) [compound 8] | 
0.11 | 1.96 | 260 |  |  |  | C[C@H](NC(=O)C(F)(F)c1cc2cc(F)ccc2[nH]c1=O)c1ccc(F)cc1F [compound 119] | 
2.90 | 10.61 | 2580 |  |  |  | Cc1c(CC(=O)N[C@@H](C)c2ccc(C#N)nn2)c(=O)[nH]c2ccc(F)cc12 [compound 1120] | 
 |  |  | 22.09 | 53.99 | 7020 | Cc1c(CC(=O)N[C@@H](CO)c2ccc(F)cc2F)c(=O)[nH]c2ccc(C#N)nc12 [compound 211] | 
18 | 100.00 | 100000 |  |  |  | N#Cc1cnc2c(c1)COC[C@@H]2NC(=O)Cc1cc2cc(F)c(F)cc2[nH]c1=O [compound 1055] | 
0.02 | 0.09 | 30 |  |  |  | C[C@H](NC(=O)Cc1c(C(F)F)c2c(F)c(F)ccc2[nH]c1=O)c1ccc(F)cc1F [compound 107] | 
 |  |  | 0.02 | 0.13 | 40 | Cc1c(CC(=O)N[C@H]2COc3cc(F)cc(F)c32)c(=O)[nH]c2ccnc(C#N)c12 (single isomer, unassigned) [compound 274] | 
 |  |  | 0.03 | 2.23 | 130 | COC[C@H](NC(=O)Cc1c(C)c2c(C#N)nccc2[nH]c1=O)c1ncc(F)cc1F [compound 160] | 
22.82 | 8.08 | 8400 |  |  |  | C[C@@H](NC(=O)Cc1cc2cc(F)c(F)cc2[nH]c1=O)c1ccc(C#N)cn1 [compound 1114] | 
0.15 | 1.56 | 1110 |  |  |  | Cc1nc(C#N)ncc1[C@H](C)NC(=O)Cc1cc2cc(F)c(F)cc2[nH]c1=O [compound 1097] | 
 |  |  | 100.00 | 100.00 | 100000 | C[C@@H](NC(=O)Cc1c(C2CC2)c2cnccc2[nH]c1=O)c1ncc(C#N)cc1F [compound 142] | 
 |  |  | 0.28 | 0.32 | 80 | Cc1nc(C#N)cnc1[C@H](C)NC(=O)Cc1c(C)c2c(C)nccc2[nH]c1=O [compound 492] | 
 |  |  | 100.00 | 100.00 | 100000 | Cc1c(CC(=O)N[C@H](CO)c2ncc(F)cc2F)c(=O)[nH]c2ccc(C#N)nc12 [compound 259] | 
100 | 1.13 | 100000 |  |  |  | Cc1ccncc1[C@H](C)NC(=O)Cc1c(C)c2c(C)c(F)ccc2[nH]c1=O [compound 1047] | 
 |  |  | 2.54 | 100.00 | 28000 | Cc1nccc2[nH]c(=O)c(CC(=O)N[C@H]3COc4cc(F)cc(F)c43)c(C)c12 (single isomer, unassigned) [compound 289] | 
 |  |  | 8.73 | 21.66 | 9760 | Cc1nccc2[nH]c(=O)c(C(F)(F)C(=O)N[C@@H](CO)c3ncc(C#N)cc3F)c(C)c12 (single isomer, unassigned) [compound 3523] | 
 | 100.00 | 45390 |  |  |  | Cc1c(C2(C(=O)N[C@@H](C)c3cccc(C#N)n3)CC2)c(=O)[nH]c2ccc(F)c(F)c12 (single isomer, unassigned) [compound 2548] | Skeletal EC25 [1, 10]: 45.96‡ μM
